In patent publication US20030206968A1, “Fungicidal mixtures” (priority 1999, published 2003):
Like-named read-outs stand apart in the source and are kept apart here.

Key:
Type in all cases: in vivo
Puccinia recondita [1] = assay: Greenhouse, Puccinia recondita on wheat, 1 day residual; details: Puccinia recondita, read-out: Observed Efficacy; for pest or weed control at 0.06 ppm: dose rate 0.06 ppm; for pest or weed control at 0.25 ppm: dose rate 0.25 ppm; for pest or weed control at 1 ppm: dose rate 1 ppm; for pest or weed control at 4 ppm: dose rate 4 ppm
Excerpt: (§1) The fungicides are applied in single treatments, or in a combination comprising an azolopyrimidine of formula I and a compound selected from the classes (A), (B) and (C) as defined above. The compounds are applied in form of an aqueous spray mix obtained from a concentrated formulation or the technical material.
(§2) 1. Seed is planted in 6 cm diameter plastic pots and maintained in the greenhouse.
(§3) 2. When the primary leaf is fully expanded in the case of cereals or several leaves are present in the case of dicots, formulated test compounds are sprayed with a three nozzle overhead fungicide sprayer to near run-off. Alternatively, a single nozzle overhead track sprayer is used for application of the compounds to cereals at a rate of 200 l/ha. Plants are then allowed to air-dry.
(§4) 3. Inoculation precedes treatment in the case of curative evaluations and follows treatment in case of residual evaluations. For inoculation of powdery mildew disease, plants are set up on greenhouse benches with bottom watering mats and inoculated by dusting them with conidia from infected plants. Between inoculation and treatment for curative evaluations and between treatment and inoculation for residual evaluations, plants are maintained in the greenhouse with bottom watering.
(§5) For inoculation of non-powdery mildew diseases, an aqueous spore suspension of the pathogen is applied to the plant and the plants are kept 1-2 days in a moist infection chamber before being returned to the greenhouse where they are maintained by bottom watering.
(§6) 4. Disease on the foliage as percent leaf area with disease symptoms/signs is evaluated about 7 days after inoculation. In the case of wheat, the tips and bases of the leaves are excluded from the evaluation. [formula]
(§7) 1. Technical compounds are formulated in a solvent/surfactant system consisting of 5% acetone and 0.05% Tween 20 in deionized water. Compounds are dissolved in acetone prior to addition of the water; the Tween 20 can be added through either the acetone or the water. Dilutions are made using the solvent/surfactant system. Formulated compounds are prepared using deionized water.
(§8) 2. Two kinds of controls are included: Plants treated with the solvent/surfactant solution and inoculated (Solvent Blank). Untreated plants which are inoculated (Inoculated Control).
(§9) Assessments of the diseases took place at the indicated day after the application of the compounds. Per cent infected leaf area infected was evaluated. The efficacy of the compounds/compounds mixtures to control the diseases was calculated by using the formula given above under item 4: […]
(§10) Synergy was calculated using the % disease control values of specific treatments for the two COLBY formula given hereinabove
Fungicidal efficacy of the mixture of Azolopyrimidine C+metconazole (1 day residual) against Puccinia recondita on wheat The tank mix was obtained from a SC formulation containing 100 g Azolopyrimidine C per liter and an EC containing 100 g metconazole per liter. […]
Fungicidal efficacy of the mixture of Azolopyrimidine C+fluazinam (1 day residual) against Puccinia recondita on wheat The tank mix was obtained from technical material of Azolopyrimidine C and a SC formulation containing 500 g fluazinam per liter. […]

Alternaria solani = assay: Greenhouse, Alternaria solani on tomatoes, 1 day residual; details: Example 25; rate 4 g/ha
Method: as §1, with “The trials are carried out under greenhouse (Examples 1 to 32) or field conditions (Examples 33 to 40) in residual or curative applications. The fungicides” for “The fungicides”
as §2, §3, §4, §5, §6, §7, §8, §9, §10
Fungicidal efficacy of the mixture of Azolopyrimidine C and different fungicides (1 day residual) against Alternaria solani on tomatoes The tank mix was obtained from an SC formulation containing 100 g Azolopyrimidine A per liter and WP formulations of dithianon (750 g/kg), captan (500 g/kg), cyprodinil (750 g/kg), mancozeb (800 g/kg), or a SC formulation of chlorothalonil (500 g/l), or a FS formulation of fenpiclonil (400 g/l), spectively.

Erysiphe cichoracearum = assay: Greenhouse, Erysiphe cichoracearum on cucumbers, 1 day residual
Method: as §1, with “The trials are carried out under greenhouse (Examples 1 to 32) or field conditions (Examples 33 to 40) in residual or curative applications. The fungicides” for “The fungicides”
as §2, §3, §4, §6, §7, §8, §9, §10
Fungicidal efficacy of the mixture of Azolopyrimidine C+triforine (1 day residual) against Erysiphe cichoracearum on cucumbers
the tank mix was obtained from a SC formulation containing 100 g of Azolopyrimidine C per liter and an DC formulation containing and 190 g of triforine per liter.
Fungicidal efficacy of the mixture of Azolopyrimidine C+cyprodinil (1 day residual) against Erysiphe cichoracearum on cucumbers The tank mix was obtained from a SC formulation containing 100 g of Azolopyrimidine C per liter and a WG formulation containing and 750 g of cyprodinil per kg.

Puccinia recondita [2] = assay: Greenhouse, Puccinia recondita on wheat, 2 days curative; details: Example 28
Method: as §1, with “The trials are carried out under greenhouse (Examples 1 to 32) or field conditions (Examples 33 to 40) in residual or curative applications. The fungicides” for “The fungicides”
as §2, §3, §4, §5, §6, §7, §8, §9, §10
Fungicidal efficacy of the mixture of (S)-Azolopyrimidine C in admixture with Azoxystrobin or Trifloxystrobin (2 days curative) against Puccinia recondita on wheat. The tank mixes were obtained from technical material of (S)-Azolopyrimidine C and Azoxystrobin or Trifloxystrobin.

Blumeria graminis = assay: Greenhouse, Blumeria graminis on barley, 4 days residual; details: Example 32
Method: as §1, with “The trials are carried out under greenhouse (Examples 1 to 32) or field conditions (Examples 33 to 40) in residual or curative applications. The fungicides” for “The fungicides”
as §2, §3, §4, §6, §7, §8, §9, §10
Fungicidal efficacy of the mixture of (S)-Azolopyrimidine C in admixture with Azoxystrobin (4 days residual) against Blumeria graminis on barley. The tank mixes were obtained from technical material of (S)-Azolopyrimidine C and Azoxystrobin.

CC(Nc1c(-c2c(F)cc(F)cc2F)c(Cl)nc2ncnn12)C(F)(F)F (centres unmarked) [Azolopyrimidine C, 5-chloro-6-(2,4,6-trifluorophenyl)-7-(1,1,1-trifluoroprop-2-ylamino)-[1,2,4]triazolo[1,5-a]pyrimidine]
pest or weed control at 2 ppm (Puccinia recondita [1]; Example 11, dose rate 2 ppm): 2%
pest or weed control at 8 ppm (Puccinia recondita [1]; Example 11, dose rate 8 ppm): 1%
pest or weed control at 10 ppm (Puccinia recondita [1]; Example 11, dose rate 10 ppm): 3%
pest or weed control at 25 ppm (Puccinia recondita [1]; Example 11, dose rate 25 ppm): 5%
pest or weed control at 40 ppm (Puccinia recondita [1]; Example 11, dose rate 40 ppm): 10%
pest or weed control at 125 ppm (Puccinia recondita [1]; Example 11, dose rate 125 ppm): 20%
pest or weed control at 200 ppm (Puccinia recondita [1]; Example 11, dose rate 200 ppm): 35%
pest or weed control at 0.06 ppm (Puccinia recondita [1]; Example 13): 8%
pest or weed control at 0.25 ppm (Puccinia recondita [1]; Example 13): 41%
pest or weed control at 1 ppm (Puccinia recondita [1]; Example 13): 71%
pest or weed control at 4 ppm (Puccinia recondita [1]; Example 13): 100%
pest or weed control at 0.06 ppm (Puccinia recondita [1]; Example 14): 8%
pest or weed control at 1 ppm (Puccinia recondita [1]; Example 14): 71%
pest or weed control at 4 ppm (Puccinia recondita [1]; Example 14): 100%
pest or weed control at 0.06 ppm (Puccinia recondita [1]; Example 15): 8%
pest or weed control at 0.25 ppm (Puccinia recondita [1]; Example 15): 49%
pest or weed control at 1 ppm (Puccinia recondita [1]; Example 15): 71%
pest or weed control at 4 ppm (Puccinia recondita [1]; Example 15): 100%
pest or weed control at 0.06 ppm (Puccinia recondita [1]; Example 19): 8%
pest or weed control at 0.25 ppm (Puccinia recondita [1]; Example 19): 49%
pest or weed control at 1 ppm (Puccinia recondita [1]; Example 19): 71%
pest or weed control at 4 ppm (Puccinia recondita [1]; Example 19): 100%
pest or weed control at 0.86 ppm (Puccinia recondita [1]; Example 20, dose rate 0.86 ppm): 8%
pest or weed control at 0.06 ppm (Puccinia recondita [1]; Example 21): 8%
pest or weed control at 1 ppm (Puccinia recondita [1]; Example 22): 71%
Observed Efficacy (Alternaria solani): 25%
Observed Efficacy (Erysiphe cichoracearum; Example 23, dose rate 1 ppm): 0%
Observed Efficacy (Erysiphe cichoracearum; Example 23, dose rate 4 ppm): 7%
Observed Efficacy (Erysiphe cichoracearum; Example 24, dose rate 1 ppm): 0%
Observed Efficacy (Erysiphe cichoracearum; Example 24, dose rate 4 ppm): 7%

5-chloro-6-(2,4,6-trifluorophenyl)-7-(1,1,1-trifluoroprop-2-ylamino)-[1,2,4]triazolo[1,5-a]pyrimidine [(S)-Azolopyrimidine C]
Observed Efficacy (Puccinia recondita [2]; dose rate 1.6 ppm): 0%
Observed Efficacy (Puccinia recondita [2]; dose rate 3.1 ppm): 0%
Observed Efficacy (Puccinia recondita [2]; dose rate 6.3 ppm): 8%
Observed Efficacy (Puccinia recondita [2]; dose rate 12.5 ppm): 23%
Observed Efficacy (Puccinia recondita [2]; dose rate 25 ppm): 54%
Observed Efficacy (Blumeria graminis; dose rate 1.6 ppm): 0%
Observed Efficacy (Blumeria graminis; dose rate 3.1 ppm): 3%
Observed Efficacy (Blumeria graminis; dose rate 6.3 ppm): 8%
Observed Efficacy (Blumeria graminis; dose rate 12.5 ppm): 17%
Observed Efficacy (Blumeria graminis; dose rate 25 ppm): 22%
Observed Efficacy (Blumeria graminis; dose rate 50 ppm): 28%
